Results: article PMC6289163 (Tuberculosis (Edinburgh, Scotland), 2018)

Tested on: clinical MDR isolate (TB4001)
Assay type: cell-based, Mycobacterium tuberculosis

| SMILES | resistance of TB4001 |
| --- | --- |
| NNC(=O)c1ccncc1 [Isoniazid] | resistant |
| CO[C@H]1/C=C/O[C@@]2(C)Oc3c(C)c(O)c4c(O)c(c(/C=N/N5CCN(C)CC5)c(O)c4c3C2=O)NC(=O)/C(C)=C\C=C\[C@H](C)[C@H](O)[C@@H](C)[C@@H](O)[C@@H](C)[C@H](OC(C)=O)[C@@H]1C [Rifampicin] | resistant |
